The values that follow come from ChEMBL document CHEMBL1201862, “PubChem BioAssay data set” (2004).

Among the test systems are COLO 205; HCT-116; IGROV-1; KM12; MCF7; MDA-MB-231; NCI-H226; NCI-H460; RPMI-8226; SK-OV-3; T47D; TK-10; U-251; UACC-62.
Holding throughout (assay): growth of human tumour cells (NCI), 48 h

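Interpolation was linear, between the two tested concentrations surrounding the appropriate level; five concentrations were tested over 48 hours in 96-well plates. GI50 marks 50% less growth.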 Active and inactive are the calls of the source. Rule as the data show it: active = GI50 up to about 1.1 µM and inactive = higher.

As to `COc1cccc2c(Nc3ccc(S(=O)(=O)NC(C)=O)cc3)c3ccc([N+](=O)[O-])cc3nc12`, the GI50 in the assay with COLO 205 is 28.5 µM (inactive); in the assay on HCT-116 it was 30.5 µM (inactive); in the assay on IGROV-1 it was 11.3 µM (inactive); in the assay with KM12 it was 11 µM (inactive); in the assay on MCF7, 13.1 µM (inactive); with MDA-MB-231, 21.2 µM (inactive). Further, the GI50 in the assay with NCI-H226 was 29.2 µM (inactive); in the assay with NCI-H460 it was 32.3 µM (inactive); in the assay on RPMI-8226 it was 16.3 µM (inactive); with SK-OV-3 it was > 100 µM (inactive); in the assay on T47D it was 94.4 µM (inactive); in the assay on TK-10, 22.4 µM (inactive). Moreover, the GI50 with U-251 is 23.7 µM (inactive); in the assay on UACC-62 it was 31.4 µM (inactive).

On to `Fc1ccc2c3c([nH]c2c1)CCNC3`, for which the GI50 in the assay on COLO 205, in the assay with HCT-116, in the assay with IGROV-1, with KM12, with MCF7 and in the assay on MDA-MB-231 was > 100 µM (inactive) in each case. Moreover, the GI50 was 59.6 µM (inactive) in the assay with NCI-H226; > 100 µM (inactive) in the assay with NCI-H460; > 100 µM (inactive) with RPMI-8226; > 100 µM (inactive) in the assay with SK-OV-3; > 100 µM (inactive) in the assay on T47D; > 100 µM (inactive) in the assay on TK-10. Further, the GI50 with U-251 and in the assay on UACC-62 was > 100 µM (inactive) in each case.

As to `O=C(N/N=C\c1ccc(Cl)cc1)Nc1ccc2ccccc2c1`, the GI50 in the assay on COLO 205 was > 100 µM (inactive); in the assay on HCT-116, 53.6 µM (inactive); with IGROV-1 it was 61.5 µM (inactive); in the assay with KM12, 79.3 µM (inactive); in the assay on MCF7, 87.9 µM (inactive); with MDA-MB-231, 41.9 µM (inactive). In addition, the GI50 in the assay on NCI-H226 was > 100 µM (inactive); with NCI-H460 it was 28.5 µM (inactive); with RPMI-8226, 70.8 µM (inactive); with SK-OV-3, 94.6 µM (inactive); in the assay on T47D, > 100 µM (inactive); with TK-10, 55.5 µM (inactive). In addition, the figures for the GI50 in the assay on U-251 and with UACC-62 were 23.9 µM (inactive) and 34.5 µM (inactive), respectively.

As to `CCN(CC)C1=Nc2ccccc2-n2c(C)cnc2C1`, the GI50 with COLO 205, with HCT-116, in the assay with IGROV-1, with KM12, with MCF7 and in the assay with MDA-MB-231 was > 100 µM (inactive) in each case. The GI50 in the assay on NCI-H226 was > 100 µM (inactive); in the assay with NCI-H460, > 100 µM (inactive); with RPMI-8226, 95.5 µM (inactive); with SK-OV-3 it was > 100 µM (inactive); with T47D it was > 100 µM (inactive); in the assay with TK-10 it was > 100 µM (inactive). Besides, the GI50 with U-251 and in the assay with UACC-62 was > 100 µM (inactive) throughout.

Take `CC(=O)O/C(=C(/C#N)C(=O)O)C1C(C(=O)O)C(c2ccccc2[N+](=O)[O-])C=C(c2ccco2)N1c1ccncc1` (stereo unspecified): the GI50 was 3.41 µM (inactive) with COLO 205; 1.52 µM (inactive) with HCT-116; 1.12 µM (inactive) with IGROV-1; 1.48 µM (inactive) in the assay on KM12; 1.03 µM (active) in the assay on MCF7; 4.78 µM (inactive) with MDA-MB-231. For the same compound, the GI50 in the assay with NCI-H226 was 4.63 µM (inactive); in the assay with NCI-H460 it was 6.35 µM (inactive); in the assay with RPMI-8226, 1.68 µM (inactive); with SK-OV-3 it was 11.6 µM (inactive); in the assay with T47D, 6.73 µM (inactive); with TK-10 it was 3.33 µM (inactive). In addition, the values for the GI50 in the assay on U-251 and with UACC-62 were 2.11 µM (inactive) and 7.52 µM (inactive), respectively.

As to `COc1ccc(CNc2nc(NC3CCCCC3)nc(NC3CCCCC3)n2)cc1`, the GI50 in the assay with COLO 205 was 3.62 µM (inactive); with HCT-116 it was 2.85 µM (inactive); in the assay with IGROV-1, 4.76 µM (inactive); in the assay with KM12, 1.21 µM (inactive); in the assay on MCF7 it was 3.78 µM (inactive); in the assay on MDA-MB-231, 3.44 µM (inactive). Also, the GI50 is 2.99 µM (inactive) with NCI-H226; 3.44 µM (inactive) in the assay with NCI-H460; 2.66 µM (inactive) in the assay with RPMI-8226; > 100 µM (inactive) in the assay with SK-OV-3; 3.41 µM (inactive) in the assay on T47D; 10 µM (inactive) with TK-10. Moreover, the GI50 with U-251 was 4.06 µM (inactive); in the assay on UACC-62 it was 6.46 µM (inactive).

As to `COC(=O)C1=C(C)NC2(C)OC(C)(O)C(C(C)=O)C12C(C)=O` (stereo unspecified), the GI50 in the assay on COLO 205 is 46.8 µM (inactive); in the assay with HCT-116, > 100 µM (inactive); in the assay on IGROV-1, > 100 µM (inactive); in the assay on KM12, > 100 µM (inactive); with MCF7, > 100 µM (inactive); with MDA-MB-231, 20.7 µM (inactive). In addition, the GI50 in the assay on NCI-H226 was 16.5 µM (inactive); in the assay on NCI-H460, > 100 µM (inactive); in the assay with RPMI-8226, 61.1 µM (inactive); with SK-OV-3, 28.5 µM (inactive); in the assay on T47D, > 100 µM (inactive); with TK-10 it was > 100 µM (inactive). Further, the GI50 is 43.7 µM (inactive) in the assay with U-251 and > 100 µM (inactive) with UACC-62.

As for `CC(=O)OCC12C(OC(C)=O)C[C@@H](C)C3(CC(c4ccoc4)OC3=O)C1CCC(OC(C)=O)C21CO1` (stereo partly specified), the GI50 in the assay on COLO 205, in the assay with HCT-116, in the assay with IGROV-1, with KM12, with MCF7 and with MDA-MB-231 was > 100 µM (inactive) in each case. Also, the GI50 in the assay on NCI-H226, in the assay on NCI-H460, in the assay on RPMI-8226, in the assay on SK-OV-3, in the assay on T47D and with TK-10 was > 100 µM (inactive) each time. Also, the GI50 with U-251 and with UACC-62 was > 100 µM (inactive) each time.

With `Cc1ccc(O)c(Cc2nc3ccccc3nc2-c2cccc(Cl)c2)c1`, the GI50 is 58.6 µM (inactive) with COLO 205; 42.9 µM (inactive) in the assay on HCT-116; 35.2 µM (inactive) in the assay on IGROV-1; 59.6 µM (inactive) with KM12; 40.8 µM (inactive) with MCF7; 46.3 µM (inactive) with MDA-MB-231. Further, the GI50 is 44.9 µM (inactive) with NCI-H226; 54.3 µM (inactive) in the assay with NCI-H460; 22.5 µM (inactive) in the assay on RPMI-8226; > 100 µM (inactive) in the assay on SK-OV-3; 79.8 µM (inactive) in the assay on T47D; 88.9 µM (inactive) in the assay with TK-10. In addition, the GI50 in the assay with U-251 was 35.4 µM (inactive); with UACC-62, 57.9 µM (inactive).

Turning to `CC1=NN(c2nc(N)nc(CSc3nc4n(c(=S)n3)CCN4)n2)C(C)(C)C1`, the GI50 in the assay on COLO 205 is 38.5 µM (inactive); with HCT-116, > 100 µM (inactive); in the assay with IGROV-1 it was 15.1 µM (inactive); in the assay with KM12, > 100 µM (inactive); with MCF7 it was 51.5 µM (inactive); in the assay with MDA-MB-231, 29.6 µM (inactive). For the same compound, the GI50 with NCI-H226 is 15 µM (inactive); in the assay on NCI-H460 it was > 100 µM (inactive); in the assay on RPMI-8226, > 100 µM (inactive); in the assay with SK-OV-3 it was 19.1 µM (inactive); in the assay on T47D, 21.7 µM (inactive); in the assay on TK-10, 74.1 µM (inactive). In addition, the figures for the GI50 in the assay on U-251 and in the assay on UACC-62 were 37.9 µM (inactive) and 43.1 µM (inactive), respectively.

As to `N#CC(NC12CC3CC(CC(C3)C1)C2)c1ccccc1` (stereo unspecified), the GI50 in the assay on COLO 205, with HCT-116, in the assay with IGROV-1, in the assay on KM12, with MCF7 and in the assay with MDA-MB-231 was > 100 µM (inactive) throughout. The GI50 with NCI-H226, in the assay with NCI-H460, in the assay on RPMI-8226, in the assay with SK-OV-3, in the assay on T47D and in the assay with TK-10 was > 100 µM (inactive) in each case. The GI50 with U-251 and with UACC-62 was > 100 µM (inactive) each time.

In the case of `C/C(=N\NC(N)=S)c1cccs1.OB(O)c1ccccc1`, the GI50 with COLO 205, in the assay on HCT-116, in the assay on IGROV-1, in the assay with KM12, with MCF7 and in the assay with MDA-MB-231 was > 100 µM (inactive) in each case. Further, the GI50 was > 100 µM (inactive) with NCI-H226; > 100 µM (inactive) in the assay on NCI-H460; > 100 µM (inactive) with RPMI-8226; > 100 µM (inactive) in the assay with SK-OV-3; 75 µM (inactive) in the assay on T47D; > 100 µM (inactive) with TK-10. For the same compound, the GI50 in the assay with U-251 and in the assay with UACC-62 was > 100 µM (inactive) throughout.

`CC(C)=CC(=O)O[C@@H]1CC(C)(C)CC2C3=CCC4[C@]56CC[C@](O)(OC5)C(C)(C)C6CC[C@@]4(C)C3(C)CC[C@]21C(=O)O` (stereo partly specified): the GI50 in the assay with COLO 205 was 22.8 µM (inactive); with HCT-116, 38 µM (inactive); in the assay on IGROV-1 it was 31.8 µM (inactive); in the assay with KM12, 33 µM (inactive); with MCF7, > 100 µM (inactive); in the assay on MDA-MB-231, > 100 µM (inactive). Besides, the GI50 in the assay with NCI-H226 was 34.2 µM (inactive); in the assay on NCI-H460, 35.2 µM (inactive); with RPMI-8226 it was 27.8 µM (inactive); with SK-OV-3, > 100 µM (inactive); with T47D, > 100 µM (inactive); in the assay with TK-10, 63.1 µM (inactive). In addition, the GI50 with U-251 was 32.9 µM (inactive); in the assay with UACC-62 it was > 100 µM (inactive).

As to `COc1cc(-c2oc3c(OC)c(O)c(OC)c(O)c3c(=O)c2OC)cc(OC)c1OC`, the GI50 was 83.8 µM (inactive) with COLO 205; 68.1 µM (inactive) with HCT-116; 31.3 µM (inactive) in the assay with IGROV-1; > 100 µM (inactive) with KM12; 38 µM (inactive) with MCF7; 73.6 µM (inactive) with MDA-MB-231. Also, the GI50 in the assay with NCI-H226 is > 100 µM (inactive); in the assay with NCI-H460 it was 39 µM (inactive); in the assay with RPMI-8226, 31.8 µM (inactive); in the assay on SK-OV-3, 40.9 µM (inactive); with T47D, 24.6 µM (inactive); with TK-10, 55.5 µM (inactive). Moreover, the GI50 with U-251 was 47.6 µM (inactive); with UACC-62 it was 24.3 µM (inactive).
